In US12404268B2, “2-heteroaryl aminoquinazolinone derivative” (Sumitomo Pharma Co., Ltd., priority 2020, dated 2025):

System: neurons induced to differentiate from SCN1A gene deficient human iPS cells
Assay: Test for measuring hyperexcitation suppression activity (spontaneous calcium oscillation frequency)
Type: cell-based
Conditions: Neuron; for inhibition at 1 µM / inhibition at 10 µM / inhibition at 0.1 µM / inhibition at 100 µM: Homo sapiens, read-out: inhibition rate; for IC50: SCN1A gene deficient human iPS cell-derived neurons, FLIPR Calcium 6, FDSS7000EX, read-out: IC50 (50% inhibitory concentration, frequency of spontaneous calcium oscillation)
Description: Test for Measuring Hyperexcitation Suppression Activity Using Neurons Induced to Differentiate from SCN1A Gene Deficient Human iPS Cells
(1) Induction of Differentiation from Human iPS cells to Neurons
Half of the culture solution was exchanged once every 3 to 4 days.
(2) Fluorescent Calcium Probe Treatment, Addition of Compound, and Evaluation of Intracellular Calcium Concentration
Half of the culture solution was removed on day 60 from induction of differentiation or thereafter. A medium for measurement comprising a fluorescent calcium probe (Molecular Device, product name: FLIPR Calcium 6 Assay Bulk Kit, cat #R8191) was added at an amount equal to the remaining medium. The culture was left standing for 30 minutes and subjected to measurement.
The test compounds were serially diluted with a dimethyl sulfoxide (DMSO) solution so that the final concentration would be 0.1 to 100 μM to prepare a concentrate with a concentration that is 6-fold of the final concentration.
The intensity of fluorescence of a calcium probe was measured over time with FDSS7000EX (Hamamatsu Photonics) to evaluate the change in intracellular calcium concentrations. First, the intensity of fluorescence was measured for 2 minutes. The compound solutions were then added using FDSS7000EX for an additional 8 minute measurement of fluorescence intensity. The frequency of spontaneous calcium oscillation was quantified as an indicator of nerve excitation. With the frequency for 2 minutes before the addition of the compound solutions as 100%, the ratio of frequency for the last 2 minutes after addition of the compound solutions was calculated.

SMILES | inhibition at 1 µM | inhibition at 10 µM | other results
O=c1c2cc(F)ccc2nc(Nc2cncc(C(F)(F)F)c2)n1-c1ccccc1 [Example 48] | 55% | – | –
O=c1c2ccccc2nc(Nc2ccon2)n1-c1ccccc1 [Example 232] | – | 73% | –
Cc1cc2nc(Nc3cccnc3)n(-c3ccccc3)c(=O)c2cn1 [Example 193] | – | – | IC50: > 10 µM
O=c1c2cc(F)ccc2nc(Nc2cccnc2)n1CCc1ccccc1 [Example 158] | – | 100% | –
CN1CC2(CC(n3c(Nc4cccnc4)nc4ccccc4c3=O)C2)C1 [Example 83] | – | 96% | –
O=c1c2cc(Cl)ccc2nc(Nc2cccnc2)n1-c1ccccc1 [Example 31, 6-chloro-3-phenyl-2-(pyridin-3-ylamino)quinazolin-4(3H)-one] | 93% | – | –
C[C@]1(N)CC[C@@H](n2c(Nc3cccnc3)nc3ccccc3c2=O)CC1 [Example 74] | – | 100% | –
O=c1c2cc(F)ccc2nc(Nc2cccnc2)n1[C@H]1CCOC1 [Example 199] | – | – | IC50: > 10 µM
O=c1c2cc(F)ccc2nc(Nc2cccnc2)n1C1(c2ccccc2)CC1 [Example 153] | 99% | – | –
NC(=O)c1ccc(Nc2nc3ccc(Cl)cc3c(=O)n2-c2ccccc2)nc1 [Example 221] | – | – | IC50: > 10 µM
CN1[C@@H]2CC[C@H]1C[C@@H](n1c(Nc3cccnc3)nc3ccccc3c1=O)C2 [Example 79] | 47% | – | –
Cc1ccc2nc(Nc3cccnc3)n(-c3ccccc3)c(=O)c2c1 [Example 42, 6-methyl-3-phenyl-2-(pyridin-3-ylamino)quinazolin-4(3H)-one] | 98% | – | –
O=c1c2cc(F)ccc2nc(Nc2ccsc2)n1-c1ccccc1 [Example 169] | – | 100% | –
Cc1ccc(-n2c(Nc3cccnc3)nc3ccc(C#N)cc3c2=O)c(Cl)c1 [Example 103] | 84% | – | –
O=c1c2cc(F)ncc2nc(Nc2cccnc2)n1-c1ccccc1 [Example 190] | – | – | IC50: > 10 µM
O=c1c2ccc(F)cc2nc(Nc2cncc(F)c2)n1-c1ccccc1 [Example 226] | – | – | IC50: > 100 µM
Cc1ncccc1Nc1nc2ccc(F)cc2c(=O)n1-c1ccccc1 [Example 29] | – | 82% | –
C[C@@H](c1ccccc1)n1c(Nc2cccnc2)nc2ccc(F)cc2c1=O [Example 163] | 70% | – | –
C[C@]1(N)CC[C@@H](n2c(Nc3cccnc3)nc3ccc(F)cc3c2=O)CC1 [Example 89] | 20% | – | –
O=c1c2cc(Cl)ccc2nc(Nc2ccncc2)n1-c1ccccc1 [Example 33] | – | 100% | –
COc1cncc(Nc2nc3ccc(F)cc3c(=O)n2-c2ccccc2)c1 [Example 28] | 32% | – | –
Cc1cccc(-n2c(Nc3cccnc3)nc3ccc(F)cc3c2=O)c1 [Example 106] | – | – | inhibition at 0.1 µM: 17%
N#Cc1ccc2nc(Nc3cccnc3)n(-c3ccccc3F)c(=O)c2c1 [Example 110] | 66% | – | –
O=c1c2cccc(F)c2nc(Nc2cccnc2)n1-c1ccccc1 [Example 115] | 81% | – | –
CN1CCC(n2c(Nc3cccnc3)nc3ccc(F)cc3c2=O)CC1 [Example 101] | – | 6% | –

SMILES | inhibition at 1 µM | inhibition at 10 µM | other results
Cc1ccccc1-n1c(Nc2cccnc2)nc2ccc(F)cc2c1=O [Example 107, 6-fluoro-2-(pyridin-3-ylamino)-3-(o-tolyl)quinazolin-4(3H)-one] | – | – | inhibition at 0.1 µM: 89%
O=c1c2ccccc2nc(Nc2cccc3ocnc23)n1-c1ccccc1 [Example 99] | – | 94% | –
O=c1c2cc(Cl)ccc2nc(Nc2cnccn2)n1-c1ccccc1 [Example 38, 6-chloro-3-phenyl-2-(pyrazin-2-ylamino)quinazolin-4(3H)-one] | 88% | – | –
O=c1c2ncccc2nc(Nc2cccnc2)n1-c1ccccc1 [Example 191] | – | – | IC50: > 10 µM
COc1cccnc1Nc1nc2ccc(F)cc2c(=O)n1-c1ccccc1 [Example 188] | – | – | IC50: > 10 µM
CN1CCC(Cn2c(Nc3cccnc3)nc3ccc(F)cc3c2=O)CC1 [Example 156] | – | 95% | –
O=c1c2cc(Cl)ccc2nc(Nc2cccnc2)n1-c1ccccc1Cl [Example 15, 6-chloro-3-(2-chlorophenyl)-2-(pyridin-3-ylamino)quinazolin-4(3H)-one] | 99% | – | –
O=c1c2cc(F)ccc2nc(Nc2cccnc2)n1[C@H]1CCCOC1 [Example 164] | – | 92% | –
CC(C)n1c(Nc2cccnc2)nc2ccccc2c1=O [Example 55] | – | 88% | –
COc1cc(F)cc2c(=O)n(-c3ccccc3)c(Nc3cccnc3)nc12 [Example 17] | – | – | inhibition at 100 µM: 17%
O=c1c2cc(F)ccc2nc(Nc2cccnc2)n1-c1ccc(Cl)cc1 [Example 135] | 24% | – | –
COCc1nccc(Nc2nc3ccc(F)cc3c(=O)n2-c2ccccc2)n1 [Example 37] | – | 68% | –
O=c1c2cc(Cl)ccc2nc(Nc2ccncn2)n1-c1ccccc1 [Example 146] | – | 11% | –
O=c1c2cc(F)ccc2nc(Nc2cccnc2)n1CC1CCCCC1 [Example 155] | – | 81% | –
O=c1c2cc(F)ccc2nc(Nc2cnoc2)n1-c1ccccc1 [Example 172] | – | – | inhibition at 100 µM: 100%
Cc1nc(Nc2nc3ccc(F)cc3c(=O)n2-c2ccccc2)cs1 [Example 174] | 78% | – | –
O=c1c2cc(Cl)ccc2nc(Nc2nnco2)n1-c1ccccc1 [Example 228] | – | – | IC50: > 10 µM
O=c1c2ccccc2nc(Nc2cccn3ccnc23)n1-c1ccccc1 [Example 66] | – | 62% | –
O=c1c2cc(F)ccc2nc(Nc2cccnc2)n1-c1ccc(F)cc1 [Example 124] | 32% | – | –
CC(C)n1c(Nc2cccnc2)nc2ccc(F)cc2c1=O [Example 59] | 39% | – | –
O=c1c2cc(F)ncc2nc(Nc2cccnc2)n1CCc1ccccn1 [Example 197] | – | – | IC50: > 10 µM
C[C@H]1CC[C@H](n2c(Nc3cccnc3)nc3ccc(F)cc3c2=O)CC1 [Example 201] | – | – | IC50: > 10 µM
O=c1c2cccc(Cl)c2nc(Nc2cccnc2)n1-c1ccccc1 [Example 219] | – | – | IC50: > 100 µM
O=c1c2ccccc2nc(Nc2cccc3cncn23)n1-c1ccccc1 [Example 63] | 23% | – | –
O=c1c2cc(F)ccc2nc(Nc2cccnc2)n1CCN1CCCC1 [Example 159] | – | 56% | –

SMILES | inhibition at 1 µM | inhibition at 10 µM | other results
COc1cccc2c(=O)n(-c3ccccc3)c(Nc3cccnc3)nc12 [Example 116] | – | – | inhibition at 100 µM: 59%
CC(=O)Nc1ccc2nc(Nc3cccnc3)n(-c3ccccc3)c(=O)c2c1 [Example 210] | – | – | IC50: > 100 µM
COc1ccnc(Nc2nc3ccc(F)cc3c(=O)n2-c2ccccc2)c1 [Example 187] | – | – | IC50: > 10 µM
Cc1cnc2nc(Nc3cccnc3)n(-c3ccccc3)c(=O)c2c1 [Example 202] | – | – | IC50: > 10 µM
O=c1c2cc(F)ccc2nc(Nc2cccnc2)n1-c1ccccc1F [Example 108, 6-fluoro-3-(2-fluorophenyl)-2-(pyridin-3-ylamino)quinazolin-4(3H)-one] | – | – | inhibition at 0.1 µM: 62%
Cc1ccccc1C1(n2c(Nc3cccnc3)nc3ccc(F)cc3c2=O)CC1 [Example 167] | – | 100% | –
O=c1c2ccccc2nc(Nc2cccnc2)n1C1CCCC1 [Example 56] | – | 100% | –
Cn1nccc1-n1c(Nc2cccnc2)nc2ccc(F)cc2c1=O [Example 150] | 26% | – | –
COc1cncc(-n2c(Nc3cccnc3)nc3ccc(F)cc3c2=O)c1 [Example 185] | – | 31% | –
O=c1c2cc(F)ccc2nc(Nc2cnccn2)n1-c1ccccc1 [Example 39, 6-fluoro-3-phenyl-2-(pyrazin-2-ylamino)quinazolin-4(3H)-one] | 100% | – | –
O=c1c2ccccc2nc(Nc2ccc3ncoc3c2)n1-c1ccccc1 [Example 98] | 51% | – | –
CN1CCC[C@@H](n2c(Nc3cccnc3)nc3ccc(F)cc3c2=O)C1 [Example 100] | – | 100% | –
COCc1nccc(Nc2nc3ccc(Cl)cc3c(=O)n2-c2ccccc2)n1 [Example 21] | – | 27% | –
Cc1ccc(Nc2nc3ccc(Cl)cc3c(=O)n2-c2ccccc2)cn1 [Example 8] | – | – | IC50: 1 µM
C[C@]1(N)CC[C@H](n2c(Nc3cccnc3)nc3ccc(F)cc3c2=O)CC1 [Example 84] | – | 96% | –
O=c1c2cc(F)ccc2nc(Nc2cc(F)ccn2)n1-c1ccccc1 [Example 127, 6-fluoro-2-((4-fluoropyridin-2-yl)amino)-3-phenylquinazolin-4(3H)-one] | 96% | – | –
CN1CCC[C@H](n2c(Nc3cccnc3)nc3ccc(F)cc3c2=O)C1 [Example 81] | – | 35% | –
Cc1cc(Nc2nc3ccc(Cl)cc3c(=O)n2-c2ccccc2)ncn1 [Example 46] | – | – | inhibition at 100 µM: 34%
O=c1c2cc(F)ccc2nc(Nc2cccnc2)n1-c1cncs1 [Example 160] | – | 58% | –
CN(C)C(=O)c1ccc2nc(Nc3cccnc3)n(-c3ccccc3)c(=O)c2c1 [Example 213] | – | – | IC50: > 100 µM
CN1[C@@H]2CC[C@H]1C[C@H](n1c(Nc3cccnc3)nc3ccc(F)cc3c1=O)C2 [Example 85] | – | 59% | –
NCCn1c(Nc2cccnc2)nc2ccc(F)cc2c1=O [Example 179] | – | 98% | –
COc1cccc2nc(Nc3cccnc3)n(-c3ccccc3)c(=O)c12 [Example 92] | – | – | inhibition at 100 µM: 38%
